According to PubChem BioAssay AID2060332 (Molecular Pharmacology Branch, DTP, NCI, 2025):

Tested on: LG0567-F671-PDC multi-cell spheroid viability
Experiment: Anticancer human tumor LG0567-F671-PDC patient-derived lung adenocarcinoma cell line growth inhibition [IpAb]
Settings: for IC50: curve of first compound; for viability, T/C: stronger effect = lower value
Summary of the method: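 Multi-cell spheroids of 60% tumour cells, 25% HUVEC and 15% MSC in ultra-low-attachment U-bottom wells, treated with agents combined with ipatasertib or abemaciclib. Half-log ranges top out near clinical Cmax, or 10 microM when Cmax is unknown.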

[1] = second compound 0.01 µM, first compound 0.00949 µM
[2] = second compound 0.01 µM, first compound 0.03 µM
[3] = second compound 0.01 µM, first compound 0.0949 µM
[4] = second compound 0.01 µM, first compound 0.3 µM
[5] = second compound 0.0316 µM, first compound 0.00949 µM
[6] = second compound 0.0316 µM, first compound 0.03 µM
[7] = second compound 0.0316 µM, first compound 0.0949 µM
[8] = second compound 0.0316 µM, first compound 0.3 µM
[9] = second compound 0.1 µM, first compound 0.00949 µM
[10] = second compound 0.1 µM, first compound 0.03 µM
[11] = second compound 0.1 µM, first compound 0.0949 µM
[12] = second compound 0.1 µM, first compound 0.3 µM
[13] = second compound 0.316 µM, first compound 0.00949 µM
[14] = second compound 0.316 µM, first compound 0.03 µM
[15] = second compound 0.316 µM, first compound 0.0949 µM
[16] = second compound 0.316 µM, first compound 0.3 µM
[17] = second compound 1 µM, first compound 0.00949 µM
[18] = second compound 1 µM, first compound 0.03 µM
[19] = second compound 1 µM, first compound 0.0949 µM
[20] = second compound 1 µM, first compound 0.3 µM
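Further: viability read after 7 days of drug exposure.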
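Wherever viability, T/C is given: 100% = DMSO vehicle control luminescence.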

SMILES | IC50 (second compound 0.01 µM) | IC50 (second compound 0.0316 µM) | IC50 (second compound 0.1 µM) | IC50 (second compound 0.316 µM) | IC50 (second compound 1 µM) | viability, T/C [1] | viability, T/C [2] | viability, T/C [3] | viability, T/C [4] | viability, T/C [5] | viability, T/C [6] | viability, T/C [7] | viability, T/C [8] | viability, T/C [9] | viability, T/C [10] | viability, T/C [11] | viability, T/C [12] | viability, T/C [13] | viability, T/C [14] | viability, T/C [15] | also measured
CC(=O)c1c(C)c2cnc(Nc3ccc(N4CCNCC4)cn3)nc2n(C2CCCC2)c1=O + CCN1CCN(Cc2ccc(Nc3ncc(F)c(-c4cc(F)c5nc(C)n(C(C)C)c5c4)n3)nc2)CC1 | > 300 nM | > 300 nM | > 300 nM | > 300 nM | > 300 nM | 87.8% | 62.5% | 82.8% | 69.2% | 94.1% | 75.2% | 55.4% | 57.4% | 62.6% | 80.2% | 60.3% | 51.2% | 67.1% | 49.4% | 56.8% | viability, T/C (second compound 0.01 µM, first compound 0.000949 µM): 74.8%; viability, T/C (second compound 0.01 µM, first compound 0.003 µM): 93.4%; viability, T/C (second compound 0.0316 µM, first compound 0.000949 µM): 83%; viability, T/C (second compound 0.0316 µM, first compound 0.003 µM): 65.1%; viability, T/C (second compound 0.1 µM, first compound 0.000949 µM): 84.4%; viability, T/C (second compound 0.1 µM, first compound 0.003 µM): 71.2%; viability, T/C (second compound 0.316 µM, first compound 0.000949 µM): 60.7%; viability, T/C (second compound 0.316 µM, first compound 0.003 µM): 51.7%; viability, T/C [16]: 50.7%; viability, T/C (second compound 1 µM, first compound 0.000949 µM): 53.4%; viability, T/C (second compound 1 µM, first compound 0.003 µM): 76.6%; viability, T/C [17]: 69%; viability, T/C [18]: 65.5%; viability, T/C [19]: 63.7%; viability, T/C [20]: 54.2%
CC(C)(C)c1cnc(CSc2cnc(NC(=O)C3CCNCC3)s2)o1 + CCN1CCN(Cc2ccc(Nc3ncc(F)c(-c4cc(F)c5nc(C)n(C(C)C)c5c4)n3)nc2)CC1 | 152 nM | 129 nM | 106 nM | 74.2 nM | 52.5 nM | 108% | 118% | 82.8% | 3.32% | 86.5% | 92.3% | 66.8% | 4.66% | 62.2% | 81.8% | 55.4% | 2.56% | 56% | 73.7% | 45.9% | viability, T/C (second compound 0.01 µM, first compound 0.949 µM): 1.33%; viability, T/C (second compound 0.01 µM, first compound 3 µM): 0.84%; viability, T/C (second compound 0.0316 µM, first compound 0.949 µM): 1.42%; viability, T/C (second compound 0.0316 µM, first compound 3 µM): 0.84%; viability, T/C (second compound 0.1 µM, first compound 0.949 µM): 1.28%; viability, T/C (second compound 0.1 µM, first compound 3 µM): 0.81%; viability, T/C [16]: 3.08%; viability, T/C (second compound 0.316 µM, first compound 0.949 µM): 1.56%; viability, T/C (second compound 0.316 µM, first compound 3 µM): 1.05%; viability, T/C [17]: 58.5%; viability, T/C [18]: 66%; viability, T/C [19]: 37%; viability, T/C [20]: 4.69%; viability, T/C (second compound 1 µM, first compound 0.949 µM): 2.05%; viability, T/C (second compound 1 µM, first compound 3 µM): 1.1%
